These results are taken from patent US4257941A, “Polycyclic nitrogen-containing compounds” (BASF Aktiengesellschaft, priority 1976, dated 1981).

Format in all cases: in vivo
The subject of one experiment is Solanum nigrum. Nature of the experiment: Herbicidal action (Example 25). Here is the method:
(§1) Paraffined paper cups having a volume of 170 cm^3 were filled with a sandy loam, and the seeds of the test plants sown therein, separated by species. (The species are also listed below.)
(§2) In the first group, treatment was effected immediately after sowing and before germination of the seeds (preemergence treatment=soil treatment). Shallow sown seeds not completely covered with soil came into contact with the active ingredients. In the second group, the plants were treated postemergence (=leaf treatment) at a growth height of from 2 to 8 cm, depending on the rate of growth and shape of the species concerned. The compounds were suspended or emulsified in water and applied with the aid of fine nozzles. The soil and plants were thoroughly sprinkler irrigated for the duration of the experiment. The cups were placed in the greenhouse and kept in the temperature range 12°-25° C. or 18°-35° C., depending on the temperature requirements of the various species. After 2 to 6 weeks the action was assessed visually on a 0 to 100 scale, 0 denoting no damage and 100 denoting plants not germinated or completely destroyed.

The next experiment has as its system Poa annua. Briefly: Herbicidal action (Example 25). The settings on record: for pest or weed control at 2000 g/ha / pest or weed control at 4000 g/ha / pest or weed control at 8000 g/ha: Poa annua, read-out: percentage damage; for pest or weed control at 4000 g/ha: 4.0 kg/ha; for pest or weed control at 8000 g/ha: 8.0 kg/ha. Here is the method:
as §1, §2

Another experiment concerns Galium aparine. Briefly: Herbicidal action (Example 25). The settings on record: read-out: percentage damage. Here is the method:
as §1, §2

For a further experiment, the system named is Lamium spp. Briefly: Herbicidal action (Example 25). Here is the method:
as §1, §2

For the next experiment, the system named is soybeans. Nature of the experiment: Growth of roots and shoots of soybeans, hydroponic (Example 16). The settings on record: for Root dry substance rel. / Root length rel. / Shoot dry substance rel. / Shoot length rel.: control 100. Here is the method:
Young soybean plants grown in quartz sand were transferred to hydroponic treatment in 4 liter vessels and provided with a sufficient supply of nutrient solution and trace elements. The active ingredients were added (0.25 mg/vessel=0.06 ppm; 1.0 mg/vessel=0.25 ppm; 2.5 mg/vessel=0.63 ppm) at a plant height of approx. 22 cm. The plants were in continuous contact with the active ingredients. […] The roots were also shorter, but the plants had more and stronger shoots.

The mark [1] stands for this setting: post-emergence, postemergence, 2.0 kg/ha.
The mark [2] stands for this setting: pre-emergence, preemergence, 2.0 kg/ha.
Setting [3] is: post-emergence, postemergence, 4.0 kg/ha.
Setting [4] is: post-emergence, postemergence, 8.0 kg/ha.
Where [5] appears, read: pre-emergence, preemergence, 4.0 kg/ha.
The mark [6] stands for this setting: pre-emergence, preemergence, 8.0 kg/ha.

Where two headings read alike, the source gives them in different places.

With `CC(C)OC(=O)Nc1cccc(Cl)c1` [drawing 426], the percentage damage with Solanum nigrum (postemergence, 2.0 kg/ha) worked out at 22 percentage damage; with Solanum nigrum (postemergence, 4.0 kg/ha) it was 22 percentage damage; with Solanum nigrum (postemergence, 8.0 kg/ha), 38 percentage damage; in the experiment with Solanum nigrum (preemergence, 2.0 kg/ha), 85 percentage damage; in the experiment on Solanum nigrum (preemergence, 4.0 kg/ha) it was 85 percentage damage; in the experiment on Solanum nigrum (preemergence, 8.0 kg/ha) it was 90 percentage damage. Also, the percentage damage in the experiment on Lamium spp. (postemergence, 2.0 kg/ha) worked out at 50 percentage damage; with Lamium spp. (postemergence, 4.0 kg/ha), 50 percentage damage; in the experiment with Lamium spp. (postemergence, 8.0 kg/ha), 90 percentage damage; in the experiment with Lamium spp. (preemergence, 2.0 kg/ha), 72 percentage damage; in the experiment on Lamium spp. (preemergence, 4.0 kg/ha), 90 percentage damage; in the experiment on Lamium spp. (preemergence, 8.0 kg/ha) it was 95 percentage damage. Also, the pest or weed control at 2000 g/ha amounted to 30% with Poa annua (setting [1]), 100% in the experiment with Poa annua (setting [2]), 0% in the experiment with Galium aparine (setting [1]) and 88% in the experiment on Galium aparine (setting [2]). Moreover, the pest or weed control at 4000 g/ha stood at 30% with Poa annua (post-emergence, postemergence); 100% with Poa annua (pre-emergence, preemergence); 0% in the experiment with Galium aparine (setting [3]); 80% in the experiment with Galium aparine (setting [5]). For the same compound, the pest or weed control at 8000 g/ha in the experiment on Poa annua (post-emergence, postemergence) is 42%; in the experiment on Poa annua (pre-emergence, preemergence), 100%; in the experiment with Galium aparine (setting [4]), 10%; with Galium aparine (setting [6]), 88%.

In the experiment with soybeans (0.06 ppm), `Clc1ccc(N2N=NC3C4CC(C5N=NC45)C32)cc1` (stereo not drawn) [drawing 387] showed a Root dry substance of 13.5 g, a Root length of 28.3 cm, a Shoot dry substance of 39.0 g and a Shoot length of 70.7 cm. Further, in the experiment on soybeans (0.06 ppm), the “Root dry substance rel.” value was found to be 97.1, the Root length rel. was 93.4, the “Shoot dry substance rel.” value turned out to be 94.9 and the Shoot length rel. was found to be 95.4. In the experiment on soybeans (0.25 ppm), the Root dry substance was 13.2 g, the Root length amounted to 24.7 cm, the Shoot dry substance stood at 31.5 g and the Shoot length is 62.3 cm. Besides, in the experiment on soybeans (0.25 ppm), the “Root dry substance rel.” value amounted to 95.0, the Root length rel. is on record as 81.5, the “Shoot dry substance rel.” value stood at 76.6 and the Shoot length rel. was 84.1. Besides, in the experiment with soybeans (0.63 ppm), the Root dry substance worked out at 15.0 g, the Root length turned out to be 24.7 cm, the Shoot dry substance is reported as 26.6 g and the Shoot length stood at 51.7 cm. In addition, in the experiment with soybeans (0.63 ppm), the “Root dry substance rel.” value was 107.9, the Root length rel. was found to be 81.5, the “Shoot dry substance rel.” value amounted to 64.7 and the Shoot length rel. turned out to be 69.8.

Consider `CN(C)C(=O)Nc1ccc(Oc2ccccc2)cc1` [drawing 427], for which the percentage damage in the experiment on Solanum nigrum (postemergence, 2.0 kg/ha) came out at 100 percentage damage; with Solanum nigrum (postemergence, 4.0 kg/ha), 100 percentage damage; in the experiment with Solanum nigrum (postemergence, 8.0 kg/ha), 100 percentage damage; with Solanum nigrum (preemergence, 2.0 kg/ha) it was 75 percentage damage; in the experiment on Solanum nigrum (preemergence, 4.0 kg/ha) it was 80 percentage damage; in the experiment on Solanum nigrum (preemergence, 8.0 kg/ha), 90 percentage damage. Also, the percentage damage worked out at 75 percentage damage with Lamium spp. (postemergence, 2.0 kg/ha); 85 percentage damage with Lamium spp. (postemergence, 4.0 kg/ha); 85 percentage damage with Lamium spp. (postemergence, 8.0 kg/ha); 50 percentage damage in the experiment with Lamium spp. (preemergence, 2.0 kg/ha); 65 percentage damage in the experiment on Lamium spp. (preemergence, 4.0 kg/ha); 75 percentage damage in the experiment on Lamium spp. (preemergence, 8.0 kg/ha). For the same compound, the pest or weed control at 2000 g/ha in the experiment on Poa annua (setting [1]) is 30%; in the experiment on Poa annua (setting [2]) it was 50%; in the experiment with Galium aparine (setting [1]) it was 0%; in the experiment on Galium aparine (setting [2]), 60%. The pest or weed control at 4000 g/ha with Poa annua (post-emergence, postemergence) was determined as 30%; with Poa annua (pre-emergence, preemergence), 58%; with Galium aparine (setting [3]) it was 0%; in the experiment on Galium aparine (setting [5]), 80%. Further, the pest or weed control at 8000 g/ha in the experiment on Poa annua (post-emergence, postemergence) worked out at 30%; in the experiment on Poa annua (pre-emergence, preemergence), 65%; in the experiment with Galium aparine (setting [4]), 0%; in the experiment on Galium aparine (setting [6]), 75%.

Consider `C=CCN(CC=C)C(=O)CCl` [drawing 428], for which the percentage damage in the experiment on Solanum nigrum (postemergence, 2.0 kg/ha) came out at 10 percentage damage; with Solanum nigrum (postemergence, 4.0 kg/ha), 10 percentage damage; in the experiment on Solanum nigrum (postemergence, 8.0 kg/ha), 20 percentage damage; in the experiment on Solanum nigrum (preemergence, 2.0 kg/ha), 0 percentage damage; in the experiment with Solanum nigrum (preemergence, 4.0 kg/ha), 15 percentage damage; with Solanum nigrum (preemergence, 8.0 kg/ha), 25 percentage damage. Further, the percentage damage was determined as 0 percentage damage in the experiment on Lamium spp. (postemergence, 2.0 kg/ha); 10 percentage damage in the experiment on Lamium spp. (postemergence, 4.0 kg/ha); 20 percentage damage in the experiment with Lamium spp. (postemergence, 8.0 kg/ha); 25 percentage damage in the experiment on Lamium spp. (preemergence, 2.0 kg/ha); 60 percentage damage in the experiment with Lamium spp. (preemergence, 4.0 kg/ha); 85 percentage damage with Lamium spp. (preemergence, 8.0 kg/ha). The pest or weed control at 2000 g/ha in the experiment on Poa annua (setting [1]) was 35%; in the experiment with Poa annua (setting [2]), 95%; in the experiment on Galium aparine (post-emergence), 5%; with Galium aparine (pre-emergence), 70%. Also, the pest or weed control at 4000 g/ha was found to be 35% in the experiment with Poa annua (post-emergence, postemergence); 98% with Poa annua (pre-emergence, preemergence); 5% with Galium aparine (post-emergence); 80% in the experiment with Galium aparine (pre-emergence). The pest or weed control at 8000 g/ha with Poa annua (post-emergence, postemergence) stood at 40%; in the experiment on Poa annua (pre-emergence, preemergence), 100%; in the experiment on Galium aparine (post-emergence), 5%; in the experiment with Galium aparine (pre-emergence) it was 90%.

Consider `c1ccc(N2N=NC3C4CC(C5N=NC45)C32)cc1` (stereo not drawn) [drawing 431], for which the percentage damage with Solanum nigrum (postemergence, 2.0 kg/ha) came out at 85 percentage damage; in the experiment with Solanum nigrum (postemergence, 4.0 kg/ha) it was 100 percentage damage; in the experiment on Solanum nigrum (postemergence, 8.0 kg/ha), 100 percentage damage; in the experiment on Solanum nigrum (preemergence, 2.0 kg/ha), 95 percentage damage; in the experiment on Solanum nigrum (preemergence, 4.0 kg/ha), 95 percentage damage; with Solanum nigrum (preemergence, 8.0 kg/ha) it was 95 percentage damage. Also, the percentage damage in the experiment with Poa annua (preemergence, 2.0 kg/ha) worked out at 100 percentage damage; with Lamium spp. (postemergence, 2.0 kg/ha) it was 60 percentage damage; with Lamium spp. (postemergence, 4.0 kg/ha) it was 90 percentage damage; with Lamium spp. (postemergence, 8.0 kg/ha) it was 90 percentage damage; in the experiment with Lamium spp. (preemergence, 2.0 kg/ha), 95 percentage damage; in the experiment on Lamium spp. (preemergence, 4.0 kg/ha), 95 percentage damage. Moreover, the percentage damage in the experiment with Lamium spp. (preemergence, 8.0 kg/ha) worked out at 95 percentage damage. Moreover, the results for the pest or weed control at 2000 g/ha in the experiment with Poa annua (setting [1]), in the experiment with Galium aparine (setting [1]) and with Galium aparine (setting [2]) were 35%, 10% and 80%, respectively. In addition, the pest or weed control at 4000 g/ha in the experiment with Poa annua (post-emergence, postemergence) was 40%; in the experiment on Poa annua (pre-emergence, preemergence) it was 100%; in the experiment with Galium aparine (setting [3]), 15%; in the experiment with Galium aparine (setting [5]) it was 100%. In addition, the pest or weed control at 8000 g/ha with Poa annua (post-emergence, postemergence) was 50%; in the experiment with Poa annua (pre-emergence, preemergence) it was 100%; in the experiment on Galium aparine (setting [4]) it was 20%; with Galium aparine (setting [6]), 100%.

As to `c1csc(N2N=NC3C4CC(C5N=NC45)C32)n1` (stereo not drawn) [drawing 432], the percentage damage in the experiment with Solanum nigrum (postemergence, 2.0 kg/ha) was determined as 90 percentage damage; in the experiment on Solanum nigrum (postemergence, 4.0 kg/ha) it was 95 percentage damage; with Solanum nigrum (postemergence, 8.0 kg/ha) it was 100 percentage damage; with Solanum nigrum (preemergence, 2.0 kg/ha), 95 percentage damage; in the experiment on Solanum nigrum (preemergence, 4.0 kg/ha), 95 percentage damage; with Solanum nigrum (preemergence, 8.0 kg/ha), 95 percentage damage. In addition, the percentage damage in the experiment with Lamium spp. (postemergence, 2.0 kg/ha) is recorded as 55 percentage damage; in the experiment on Lamium spp. (postemergence, 4.0 kg/ha), 60 percentage damage; in the experiment on Lamium spp. (postemergence, 8.0 kg/ha), 95 percentage damage; in the experiment with Lamium spp. (preemergence, 2.0 kg/ha), 95 percentage damage; with Lamium spp. (preemergence, 4.0 kg/ha), 95 percentage damage; in the experiment on Lamium spp. (preemergence, 8.0 kg/ha) it was 95 percentage damage. The pest or weed control at 2000 g/ha in the experiment on Poa annua (setting [1]) worked out at 38%; in the experiment with Poa annua (setting [2]), 80%; in the experiment on Galium aparine (setting [1]) it was 10%; with Galium aparine (setting [2]) it was 72%. Also, the pest or weed control at 4000 g/ha in the experiment on Poa annua (post-emergence, postemergence) was determined as 52%; in the experiment with Poa annua (pre-emergence, preemergence), 92%; with Galium aparine (setting [3]) it was 18%; with Galium aparine (setting [5]), 98%. For the same compound, the pest or weed control at 8000 g/ha in the experiment on Poa annua (post-emergence, postemergence) is 68%; in the experiment on Poa annua (pre-emergence, preemergence), 95%; in the experiment with Galium aparine (setting [4]), 30%; in the experiment on Galium aparine (setting [6]), 90%.
